In patent US7994185B2, “Benzene sulfonamide thiazole and oxazole compounds” (Glaxo Smith Kline LLC, priority 2008, dated 2011):
Where a name gives a salt, the structure may show the parent alone. Read-outs that look alike come from different tables or passages of the source.

Key:
[1] = biological target: T1, BRAFV600E full-length (amino acids 2-766) (Homo sapiens, UniProt P15056, V600E); assay: B-Raf Accelerated MEK ATPase assay (BRAMA); type: biochemical; conditions: categorized
T1 construct: His6-tagged BRAFV600E full-length (amino acids 2-766); His6; made in house; host or cells: baculovirus expression system (insect cells)
T1 sequence (P15056 2-766 V600E): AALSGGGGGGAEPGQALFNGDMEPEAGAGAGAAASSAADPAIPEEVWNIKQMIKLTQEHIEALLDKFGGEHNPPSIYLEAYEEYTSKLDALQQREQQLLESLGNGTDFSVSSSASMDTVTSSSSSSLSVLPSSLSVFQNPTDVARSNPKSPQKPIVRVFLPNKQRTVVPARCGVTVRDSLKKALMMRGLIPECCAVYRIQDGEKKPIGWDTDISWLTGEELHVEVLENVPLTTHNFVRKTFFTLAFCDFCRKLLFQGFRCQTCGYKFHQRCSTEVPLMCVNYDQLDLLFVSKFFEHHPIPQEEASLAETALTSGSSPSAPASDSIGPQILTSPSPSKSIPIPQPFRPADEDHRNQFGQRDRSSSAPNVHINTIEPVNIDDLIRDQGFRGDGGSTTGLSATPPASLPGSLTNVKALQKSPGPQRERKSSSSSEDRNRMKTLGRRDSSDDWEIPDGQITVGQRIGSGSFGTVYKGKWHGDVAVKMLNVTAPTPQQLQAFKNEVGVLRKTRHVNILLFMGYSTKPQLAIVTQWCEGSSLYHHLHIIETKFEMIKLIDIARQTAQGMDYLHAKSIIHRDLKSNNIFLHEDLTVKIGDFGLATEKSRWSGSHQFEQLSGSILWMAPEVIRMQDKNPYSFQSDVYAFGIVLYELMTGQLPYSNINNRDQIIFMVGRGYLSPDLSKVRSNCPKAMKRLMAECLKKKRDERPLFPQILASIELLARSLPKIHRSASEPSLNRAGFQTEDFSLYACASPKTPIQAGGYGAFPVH
Summary of the method: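 Coupled-enzyme readout: ADP generated by MEK-mediated ATP hydrolysis, uncoupled from ERK phosphorylation, is linked to NADH oxidation through pyruvate kinase and lactate dehydrogenase.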

[2] = test system: Human colon tumor cells (Colo205); assay: Cell growth inhibition assay (CellTiter-Glo), Colo205; type: cell-based
Summary of the method: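 Growth is estimated from total cellular ATP measured by CellTiter-Glo luminescence after a 3-day compound exposure at 37 °C. Compounds are tested as 1:3 dilution series in 0.2% final DMSO, with inhibition expressed relative to vehicle-treated wells.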

[3] = test system: Human melanoma cancer cells (SK-MEL-28); assay: Cell growth inhibition assay (CellTiter-Glo), SK-MEL-28; type: cell-based
[4] = B-Raf Activity, Table 1a, highest pIC50 for the one or more runs
[5] = Table 1b, later runs, average pIC50 for the one or more runs, read-out: B-Raf pIC50 (converted)
[6] = COLO 205, 72 h, Table 2a, 3 days incubation, read-out: Activity in Colo205 Tumor Cells
[7] = COLO 205, Table 2b, later runs, average for the one or more runs, categorized, read-out: IC50 for Colo205
[8] = SK-MEL-28, 72 h, Table 3a, 3 days incubation, read-out: Activity in SK-MEL-28 Tumor Cells
[9] = SK-MEL-28, Table 3b, later runs, average for the one or more runs, categorized, read-out: IC50 for SK-MEL-28
[10] = B-Raf pIC50, Table 1b, later runs, average pIC50 for the one or more runs

In the case of `CC(C)(C)c1nc(-c2cccc(NS(=O)(=O)c3cc(F)ccc3F)c2F)c(-c2ccnc(CCN3CCOCC3)n2)s1` [Example 215], the IC50 [1, 4] is reported as less than 100 nM, the IC50 [1, 5] is reported as 3.16 to 31.6 nM and the IC50 [2, 6] is reported as less than 100 nM. For the same compound, the IC50 [2, 7] was less than 100 nM, the IC50 [3, 8] was less than 100 nM and the IC50 [3, 9] was less than 100 nM.
`CC(C)c1nc(-c2ccc(F)c(NS(=O)(=O)c3c(F)cccc3F)c2)c(-c2ccnc(NCC3CC3)n2)s1` [Example 6, N-{5-[5-{2-[(Cyclopropylmethyl)amino]-4-pyrimidinyl}-2-(1-methylethyl)-1,3-thiazol-4-yl]-2-fluorophenyl}-2,6-difluorobenzenesulfonamide] gave an IC50 [1, 4] of less than 100 nM, an IC50 [1, 10] of 31.6 to 1000 nM and an IC50 [2, 6] greater than 1000 nM. The IC50 [2, 7] was 1000 to 10000 nM, the IC50 [3, 8] was greater than 1000 nM and the IC50 [3, 9] was 1000 to 10000 nM.
In the case of `Nc1nccc(-c2sc(N3CCOCC3)nc2-c2cccc(NS(=O)(=O)c3ccco3)c2F)n1` [Example 62, N-{3-[5-(2-Amino-4-pyrimidinyl)-2-(4-morpholinyl)-1,3-thiazol-4-yl]-2-fluorophenyl}-2-furansulfonamide], the IC50 [1, 4] is reported as less than 100 nM, the IC50 [1, 10] is reported as no more than 3.16 nM and the IC50 [2, 6] is reported as 100 to 1000 nM. For the same compound, the IC50 [2, 7] was 100 to 1000 nM, the IC50 [3, 8] was 100 to 1000 nM and the IC50 [3, 9] was 100 to 1000 nM.
Compound `Cc1nccc(-c2sc(C(C)(C)C)nc2-c2cccc(NS(=O)(=O)c3ccoc3)c2Cl)n1` [Example 270, N-{2-chloro-3-[2-(1,1-dimethylethyl)-5-(2-methyl-4-pyrimidinyl)-1,3-thiazol-4-yl]phenyl}-3-furansulfonamide] has an IC50 [1, 10] of no more than 3.16 nM, an IC50 [2, 7] of 100 to 1000 nM and an IC50 [3, 9] of 100 to 1000 nM.
With `CS(=O)(=O)N1CCC(Nc2nccc(-c3sc(N4CCOCC4)nc3-c3cccc(NS(=O)(=O)c4ccco4)c3F)n2)CC1` [Example 41, N-{2-Fluoro-3-[5-(2-{[1-(methylsulfonyl)-4-piperidinyl]amino}-4-pyrimidinyl)-2-(4-morpholinyl)-1,3-thiazol-4-yl]phenyl}-2-furansulfonamide] the IC50 [1, 4] was less than 100 nM, the IC50 [1, 10] was no more than 3.16 nM and the IC50 [2, 6] was less than 100 nM. It also gave an IC50 [2, 7] of less than 100 nM, an IC50 [3, 8] of less than 100 nM and an IC50 [3, 9] of 100 to 1000 nM.
For `Cn1cc(S(=O)(=O)Nc2cccc(-c3nc(C(C)(C)C)sc3-c3ccnc(N)n3)c2F)cn1` [Example 283, N-{3-[5-(2-amino-4-pyrimidinyl)-2-(1,1-dimethylethyl)-1,3-thiazol-4-yl]-2-fluorophenyl}-1-methyl-1H-pyrazole-4-sulfonamide hydrochloride], the IC50 [1, 5] was 3.16 to 31.6 nM, the IC50 [2, 7] was 100 to 1000 nM and the IC50 [3, 9] was 100 to 1000 nM.
Compound `CC(C)c1nc(-c2ccc(F)c(NS(=O)(=O)c3c(F)cccc3F)c2)c(-c2ccnc(NCC(F)F)n2)s1` [Example 93, N-{5-[5-{2-[(2,2-Difluoroethyl)amino]-4-pyrimidinyl}-2-(1-methylethyl)-1,3-thiazol-4-yl]-2-fluorophenyl}-2,6-difluorobenzenesulfonamide] has an IC50 [1, 4] of less than 100 nM, an IC50 [1, 5] of 3.16 to 31.6 nM and an IC50 [2, 6] of 100 to 1000 nM. The IC50 [2, 7] was 100 to 1000 nM, the IC50 [3, 8] was 100 to 1000 nM and the IC50 [3, 9] was 100 to 1000 nM.
With `CS(=O)(=O)N1CCC(Nc2nccc(-c3sc(C4CCC4)nc3-c3ccc(F)c(NS(=O)(=O)c4cc(F)ccc4F)c3)n2)CC1` [Example 80, N-{5-[2-Cyclobutyl-5-(2-{[1-(methylsulfonyl)-4-piperidinyl]amino}-4-pyrimidinyl)-1,3-thiazol-4-yl]-2-fluorophenyl}-2,5-difluorobenzenesulfonamide] the IC50 [1, 4] was less than 100 nM, the IC50 [1, 5] was 3.16 to 31.6 nM and the IC50 [2, 6] was 100 to 1000 nM. The IC50 [2, 7] was 100 to 1000 nM, the IC50 [3, 8] was 100 to 1000 nM and the IC50 [3, 9] was 100 to 1000 nM.
`CC(C)(C)c1nc(-c2cccc(NS(=O)(=O)c3cccnc3)c2F)c(-c2ccnc(N)n2)s1` [Example 230, N-{3-[5-(2-amino-4-pyrimidinyl)-2-(1,1-dimethylethyl)-1,3-thiazol-4-yl]-2-fluorophenyl}-3-pyridinesulfonamide] was tested, and the IC50 [1, 10] was no more than 3.16 nM, the IC50 [2, 7] was less than 100 nM and the IC50 [3, 9] was less than 100 nM.
With `CC(C)(C)c1nc(-c2cccc(NS(=O)(=O)c3cc(F)ccc3F)c2F)c(-c2ccnc(CCS(C)(=O)=O)n2)s1` [Example 214] the IC50 [1, 4] was less than 100 nM, the IC50 [1, 10] was no more than 3.16 nM and the IC50 [2, 6] was less than 100 nM. For the same compound, the IC50 [2, 7] was less than 100 nM, the IC50 [3, 8] was less than 100 nM and the IC50 [3, 9] was less than 100 nM.
`Cn1ccc(S(=O)(=O)Nc2cccc(-c3nc(C(C)(C)C)sc3-c3ccnc(N)n3)c2F)c1` [Example 284, N-{3-[5-(2-amino-4-pyrimidinyl)-2-(1,1-dimethylethyl)-1,3-thiazol-4-yl]-2-fluorophenyl}-1-methyl-1H-pyrrole-3-sulfonamide hydrochloride] showed an IC50 [1, 10] of 31.6 to 1000 nM, an IC50 [2, 7] of 100 to 1000 nM and an IC50 [3, 9] of 100 to 1000 nM.
`COCCNc1nccc(-c2sc(C(C)C)nc2-c2ccc(F)c(NS(=O)(=O)c3c(F)cccc3F)c2)n1` [Example 159] gave an IC50 [1, 4] of 100 to 1000 nM, an IC50 [1, 10] of 31.6 to 1000 nM and an IC50 [2, 6] of 100 to 1000 nM. The IC50 [2, 7] was 100 to 1000 nM, the IC50 [3, 8] was 100 to 1000 nM and the IC50 [3, 9] was 100 to 1000 nM.
In the case of `CNc1nccc(-c2sc(C(C)C)nc2-c2cccc(NS(=O)(=O)c3cccc(F)c3)c2)n1` [Example 86, 3-Fluoro-N-{3-[5-[2-(methylamino)-4-pyrimidinyl]-2-(1-methylethyl)-1,3-thiazol-4-yl]phenyl}benzenesulfonamide], the IC50 [1, 4] is reported as less than 100 nM, the IC50 [1, 10] is reported as 31.6 to 1000 nM and the IC50 [2, 6] is reported as greater than 1000 nM. It also gave an IC50 [2, 7] of 1000 to 10000 nM, an IC50 [3, 8] greater than 1000 nM and an IC50 [3, 9] of 1000 to 10000 nM.
With `CC(C)(C)c1nc(-c2cccc(NS(=O)(=O)c3ccccn3)c2F)c(-c2ccnc(N)n2)s1` [Example 278, N-{3-[5-(2-amino-4-pyrimidinyl)-2-(1,1-dimethylethyl)-1,3-thiazol-4-yl]-2-fluorophenyl}-2-pyridinesulfonamide] the IC50 [1, 5] was 3.16 to 31.6 nM, the IC50 [2, 7] was 100 to 1000 nM and the IC50 [3, 9] was 100 to 1000 nM.
With `O=S(=O)(Nc1cccc(-c2nc(N3CCOCC3)sc2-c2ccncn2)c1F)c1cc(F)ccc1F` [Example 227, 2,5-difluoro-N-{2-fluoro-3-[2-(4-morpholinyl)-5-(4-pyrimidinyl)-1,3-thiazol-4-yl]phenyl}benzenesulfonamide] the IC50 [1, 10] was no more than 3.16 nM, the IC50 [2, 7] was less than 100 nM and the IC50 [3, 9] was less than 100 nM.
Work on `CC(C)(C)c1nc(-c2cccc(NS(=O)(=O)c3cc(F)ccc3F)c2F)c(-c2ccnc(NCC3CCCO3)n2)s1` (stereo not drawn) [Example 213] yielded an IC50 [1, 4] of less than 100 nM, an IC50 [1, 10] of no more than 3.16 nM and an IC50 [2, 6] of less than 100 nM. For the same compound, the IC50 [2, 7] was less than 100 nM, the IC50 [3, 8] was less than 100 nM and the IC50 [3, 9] was less than 100 nM.
With `Nc1nccc(-c2sc(N3CCS(=O)(=O)CC3)nc2-c2cccc(NS(=O)(=O)c3c(F)cccc3F)c2F)n1` [Example 102, N-{3-[5-(2-Amino-4-pyrimidinyl)-2-(1,1-dioxido-4-thiomorpholinyl)-1,3-thiazol-4-yl]-2-fluorophenyl}-2,6-difluorobenzenesulfonamide] the IC50 [1, 4] was less than 100 nM, the IC50 [1, 5] was 3.16 to 31.6 nM and the IC50 [2, 6] was 100 to 1000 nM. It also gave an IC50 [2, 7] of 100 to 1000 nM, an IC50 [3, 8] of 100 to 1000 nM and an IC50 [3, 9] of 100 to 1000 nM.
`CC(C)CNc1nccc(-c2sc(N3CCOCC3)nc2-c2cccc(NS(=O)(=O)c3ccco3)c2F)n1` [Example 43, N-{2-fluoro-3-[5-{2-[(2-methylpropyl)amino]-4-pyrimidinyl}-2-(4-morpholinyl)-1,3-thiazol-4-yl]phenyl}-2-furansulfonamide] gave an IC50 [1, 4] of less than 100 nM, an IC50 [1, 10] of no more than 3.16 nM and an IC50 [2, 6] of 100 to 1000 nM. For the same compound, the IC50 [2, 7] was 100 to 1000 nM, the IC50 [3, 8] was 100 to 1000 nM and the IC50 [3, 9] was 100 to 1000 nM.
With `CC(C)(CO)c1nc(-c2cccc(NS(=O)(=O)c3c(F)cccc3F)c2F)c(-c2ccnc(N)n2)s1` [Example 295, N-{3-[5-(2-amino-4-pyrimidinyl)-2-(2-hydroxy-1,1-dimethylethyl)-1,3-thiazol-4-yl]-2-fluorophenyl}-2,6-difluorobenzenesulfonamide] the IC50 [1, 10] was no more than 3.16 nM, the IC50 [2, 7] was less than 100 nM and the IC50 [3, 9] was less than 100 nM.
